Laboratory results: ChEMBL document CHEMBL4425100, “Design, Synthesis, and Evaluation of in Vitro and in Vivo Anticancer Activity of 4-Substituted Coumarins: A Novel Class of Potent Tubulin Polymerization Inhibitors” (J Med Chem, 2016)
pIC50: −log10 of the molar value. Counter-ions that a name gives are not always drawn. Activity calls are given as the source filed them. The rule behind the calls is not given here.

Assays:
[1] = Solubility of the compound in […] ethanol/[…] Tween-80 at 1 mg; assay type: physicochemical
Tubulin (Homo sapiens) [2] = biological target: T1, Tubulin (Homo sapiens) (UniProt P68371+Q9H4B7+P0DPH7+P68366+Q13509+Q71U36+P04350+Q3ZCM7+P07437+P68363+Q9BQE3+Q6PEY2+Q13885+Q9BVA1+Q9BUF5); test: Binding affinity to tubulin in human HepG2 cells assessed as induction of abnormal chromosomal aggregation at 100 nM after 16 to 24 hrs by DAPI staining-based immunofluorescence microscopy; assay type: cell-based
Tubulin (Homo sapiens) [3] = biological target: T1, Tubulin (Homo sapiens); test: Binding affinity to tubulin in human HepG2 cells assessed as inhibition of microtubule network formation in cytosol at 100 nM after 16 to 24 hrs by DAPI staining-based immunofluorescence microscopy; assay type: cell-based
NCI/ADR-RES [4] = test: Cytotoxicity against P-gp overexpressing human MCF7/ADR cells assessed as reduction in cell growth after 24 hrs by MTT assay; assay type: functional, cell-based
NCI/ADR-RES [5] = test: Antitumor activity against P-gp overexpressing human MCF7/ADR cells xenografted in mouse assessed as tumor growth inhibition at 4 mg/kg, iv qd administered every 2 days measured during compound dosing; assay type: functional; conditions: 48 h, read-out: TGI
[6] = Toxicity in mouse xenografted with P-gp overexpressing human MCF7/ADR cells assessed as body weight loss at 4 mg/kg, iv qd administered every 2 days measured during compound dosing; assay type: organism-based; conditions: in vivo, 48 h
HepG2 = test: cells; conditions: Homo sapiens, HepG2, 24 h
Description: Antiproliferative activity against human HepG2 cells after 24 hrs by MTT assay

SK-OV-3 = test: Antiproliferative activity against human SKOV3 cells after 24 hrs by MTT assay; assay type: functional, cell-based; conditions: SK-OV-3, 24 h
HCT-116 = test: Antiproliferative activity against human HCT116 cells after 24 hrs by MTT assay; assay type: functional, cell-based; conditions: HCT-116, 24 h
HCT-8 [7] = test: Cytotoxicity against vinblastine resistant/P-gp overexpressing human HCT8 cells assessed as reduction in cell growth after 24 hrs by MTT assay; assay type: functional, cell-based; conditions: HCT-8, 24 h
A2780/Taxol [8] = test: Cytotoxicity against beta-tubulin 3 overexpressing human A2780T cells assessed as reduction in cell growth after 24 hrs by MTT assay; assay type: functional, cell-based
HCT-8 [9] = test: Antiproliferative activity against human HCT8 cells after 24 hrs by MTT assay; assay type: functional, cell-based; conditions: HCT-8, 24 h
MCF7 [10] = test: cells; conditions: Homo sapiens, MCF7, 24 h
Description: Antiproliferative activity against human MCF7 cells after 24 hrs by MTT assay

[11] = Toxicity in mouse xenografted with beta-tubulin 3 overexpressing human A2780T cells assessed as body weight loss at 30 mg/kg, iv qd administered once a week; assay type: organism-based; conditions: in vivo
Tubulin (Homo sapiens) [12] = biological target: T1, Tubulin (Homo sapiens); test: Binding affinity to microtubule in human HepG2 cells assessed as bundling of microtubule fibers near nucleus at 300 nM after 24 hrs by immunofluorescence staining-based confocal microscopy; assay type: cell-based
[13] = Toxicity in mouse xenografted with beta-tubulin 3 overexpressing human A2780T cells assessed as abnormal behavior at 30 mg/kg, iv qd administered once a week; assay type: organism-based; conditions: in vivo
A2780/Taxol [14] = test: Antitumor activity against beta-tubulin 3 overexpressing human A2780T cells xenografted in mouse assessed as tumor growth inhibition at 30 mg/kg, iv qd administered once a week; assay type: functional; conditions: read-out: TGI
MCF7 [15] = test: Antitumor activity against human MCF7 cells xenografted in mouse assessed as tumor growth inhibition at 5 mg/kg, iv qd administered every 2 days measured during compound dosing; assay type: functional; conditions: 48 h, read-out: TGI
[16] = Toxicity in mouse xenografted with human MCF7 cells assessed as body weight loss at 5 mg/kg, iv qd administered every 2 days measured during compound dosing; assay type: organism-based; conditions: in vivo, 48 h
[17] = Toxicity in mouse xenografted with human MCF7 cells assessed as body weight loss at 24 mg/kg, iv qd administered once a week; assay type: organism-based; conditions: in vivo

CCOC(=O)CCC(=O)Nc1cc(N(C)c2cc(=O)oc3ccccc23)ccc1OC
solubility [1]: Insoluble

CCC/C=C/C(=O)Oc1cc(N(C)c2cc(=O)oc3ccccc23)ccc1OC
solubility [1]: Insoluble

CCOC(=O)CCC(=O)Oc1cc(N(C)c2cc(=O)oc3ccccc23)ccc1OC
solubility [1]: Insoluble

COc1ccc(N(C)c2cc(=O)oc3ccccc23)cc1OC(=O)CCCCCl
Activity (Tubulin (Homo sapiens) [2]): Active | solubility [1]: Soluble | inhibition of microtubule network formation (active/inactive) (Tubulin (Homo sapiens) [3]): Active

C=CCCC(=O)Nc1cc(N(C)c2cc(=O)oc3ccccc23)ccc1OC
Activity (Tubulin (Homo sapiens) [2]): Active | solubility [1]: Soluble | inhibition of microtubule network formation (active/inactive) (Tubulin (Homo sapiens) [3]): Active

COc1ccc2c(N(C)c3ccc(OC)c(O)c3)cc(=O)oc2c1
solubility [1]: Insoluble

COc1ccc(N(C)c2cc(=O)oc3ccccc23)cc1OC(=O)CCl
solubility [1]: Insoluble

COc1ccc(N(C)c2cc(=O)oc3ccccc23)cc1OC(=O)CC(C)(C)C
solubility [1]: Insoluble

COc1cccc2c1C(=O)c1c(O)c3c(c(O)c1C2=O)C[C@@](O)(C(=O)CO)C[C@@H]3O[C@H]1C[C@H](N)[C@H](O)[C@H](C)O1 [DOXORUBICIN HYDROCHLORIDE]
pIC50 (NCI/ADR-RES [4]): 5.09 | inhibition in vivo at 4 mg/kg (NCI/ADR-RES [5]): 33.3% | Activity [6]: Toxic

CCCCCC(=O)Oc1cc(N(C)c2cc(=O)oc3ccccc23)ccc1OC
solubility [1]: Insoluble

COc1ccc(-c2ccc(-c3cc(=O)oc4cc(OC)ccc34)s2)cc1
pIC50 (HepG2): < 5.30 | pIC50 (SK-OV-3): < 5.30 | pIC50 (HCT-116): < 5.30

COc1ccc(N(C)c2cc(=O)oc3ccccc23)cc1OC(=O)CBr
solubility [1]: Insoluble

C/C=C/C(=O)Nc1cc(N(C)c2cc(=O)oc3ccccc23)ccc1OC
solubility [1]: Insoluble

COc1ccc(N(C)c2cc(=O)oc3ccccc23)cc1N
solubility [1]: Insoluble

COc1ccc(N(C)c2cc(=O)oc3ccccc23)cc1OC(=O)C(C)(C)C
solubility [1]: Insoluble

COc1ccc2c(-c3ccc(-c4ccc5c(c4)OCO5)s3)cc(=O)oc2c1
pIC50 (HepG2): < 5.30 | pIC50 (SK-OV-3): < 5.30 | pIC50 (HCT-116): < 5.30

CCCCCCCCCC(=O)Oc1cc(N(C)c2cc(=O)oc3ccccc23)ccc1OC
solubility [1]: Insoluble

CC[C@]1(O)C[C@@H]2CN(CCc3c([nH]c4ccccc34)[C@@](C(=O)OC)(c3cc4c(cc3OC)N(C)[C@H]3[C@@](O)(C(=O)OC)[C@H](OC(C)=O)[C@]5(CC)C=CCN6CC[C@]43[C@@H]65)C2)C1 [VINBLASTINE]
pIC50 (NCI/ADR-RES [4]): 5.23 | pIC50 (HCT-8 [7]): 5.28 | pIC50 (A2780/Taxol [8]): 5.16 | pIC50 (HCT-8 [9]): 7.83 | pIC50 (MCF7 [10]): 7.26

COc1ccc(N(C)c2cc(=O)oc3ccccc23)cc1OC(C)=O
solubility [1]: Insoluble

CC(=O)O[C@H]1C(=O)[C@@]2(C)[C@H]([C@H](OC(=O)c3ccccc3)[C@]3(O)C[C@H](OC(=O)[C@H](O)[C@@H](NC(=O)c4ccccc4)c4ccccc4)C(C)=C1C3(C)C)[C@]1(OC(C)=O)CO[C@@H]1C[C@@H]2O [PACLITAXEL]
Activity [11]: Toxic | pIC50 (NCI/ADR-RES [4]): 5.04 | Activity (Tubulin (Homo sapiens) [12]): Active | pIC50 (HCT-8 [7]): 6.72 | Activity [13]: Toxic | inhibition in vivo at 30 mg/kg (A2780/Taxol [14]): 37.7% | pIC50 (A2780/Taxol [8]): 4.25 | inhibition in vivo at 5 mg/kg (MCF7 [15]): 59.2% | Activity [16]: Toxic | Activity [17]: Toxic
